IC50 and percent of F-actin bundled data for two compounds are collected here from PMC9912108, “The actin bundling activity of ITPKA mainly accounts for its migration-promoting effect in lung cancer cells” (Bioscience Reports, 2023).

A word on the IC50: it is the concentration that gives 50% inhibition.

Experiment [1] addresses T1, ITPKA (Ins(1,4,5)P3-kinase-A) (Homo sapiens, UniProt P23677).
T1 construct: expressed in bacteria as GFP-His-fusion protein, tags cleaved with TEV protease
Kind of experiment: coupled optical InsP3-kinase assay (pyruvate kinase/lactate dehydrogenase, NADH) with […] recombinant ITPKA. It is filed as biochemical.

The target of experiment [2] is F-actin (filamentous actin) (chicken) (UniProt P68139). Kind of experiment: co-sedimentation; F-actin bundling assay: G-actin in F-actin buffer (20 mM Tris-HCl pH 7.5, 100 mM KCl, 2 mM MgCl2, 1 mM EGTA, 1 mM DTT, 0.5 mM ATP) with or without ITPKA proteins, 20 min at RT, 10,000 g for 20 min at 4°C; about 1 µM F-actin, 0.5 µM ITPKA, 10-fold excess of ITPKA^L34P; supernatant and pellet on Coomassie-stained SDS-PAGE.

Ins(1,4,5)P3-kinase-A (ITPKA), wild type, sequence (P23677 whole entry): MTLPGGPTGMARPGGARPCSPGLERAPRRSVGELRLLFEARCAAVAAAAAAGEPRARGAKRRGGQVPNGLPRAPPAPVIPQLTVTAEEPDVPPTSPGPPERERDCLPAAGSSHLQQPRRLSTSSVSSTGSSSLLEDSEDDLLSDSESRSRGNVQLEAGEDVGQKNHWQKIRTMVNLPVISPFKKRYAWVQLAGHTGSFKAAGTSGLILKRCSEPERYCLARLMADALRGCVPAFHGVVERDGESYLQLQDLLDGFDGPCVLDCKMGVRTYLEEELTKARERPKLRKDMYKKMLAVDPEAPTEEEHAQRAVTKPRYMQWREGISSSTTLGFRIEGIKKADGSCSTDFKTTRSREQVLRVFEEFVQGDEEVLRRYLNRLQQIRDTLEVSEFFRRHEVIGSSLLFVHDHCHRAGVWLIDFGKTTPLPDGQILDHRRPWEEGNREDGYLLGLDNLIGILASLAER
T1 sequence (P23677 whole entry, the tested form may be a part): as the sequence (P23677 whole entry) above

On to `C[C@@H]1CN(Cc2cn[nH]c2-c2ccc(C#N)cc2)CCN1c1ccc(C(F)(F)F)cn1` [GNF362], for which, in experiment [1], the IC50 came out at 17 nM.

In experiment [2], “Ins(1,4,5)P3-kinase-A (ITPKA), wild type (from UniProt P23677 1-461) (enzyme)” came in with a percent of F-actin bundled of 60%.
